Test results from the NIST ThermoML archive (doi:10.1021/je100125x).
± gives the expanded uncertainty stated by the source.

Legend:
[1] = Crystal; DTA
[2] = Molar enthalpy of transition or fusion; conditions: Crystal; DSC

C[C@@H]1CC[C@H]2[C@@H](C)C(=O)O[C@@H]3O[C@@]4(C)CC[C@@H]1[C@]32OO4 [artemisinin]
Triple point temperature [1]: 429.6 ± 1.1 K | Molar enthalpy of transition or fusion [2]: 5.81 ± 0.225 kcal/mol
